This is an account of results in patent publication US20230271969A1, “NITROGEN-CONTAINING FUSED RING DERIVATIVE INHIBITOR, PREPARATION METHOD THEREFOR AND USE THEREOF” (Shanghai Hansoh Biomedical Co., Ltd., priority 2020, published 2023).

Test [1] has as its target T1, NK3 receptors (Homo sapiens, UniProt P29371).
T1 construct: expressed in transfected cells
T1 sequence (P29371 1-465): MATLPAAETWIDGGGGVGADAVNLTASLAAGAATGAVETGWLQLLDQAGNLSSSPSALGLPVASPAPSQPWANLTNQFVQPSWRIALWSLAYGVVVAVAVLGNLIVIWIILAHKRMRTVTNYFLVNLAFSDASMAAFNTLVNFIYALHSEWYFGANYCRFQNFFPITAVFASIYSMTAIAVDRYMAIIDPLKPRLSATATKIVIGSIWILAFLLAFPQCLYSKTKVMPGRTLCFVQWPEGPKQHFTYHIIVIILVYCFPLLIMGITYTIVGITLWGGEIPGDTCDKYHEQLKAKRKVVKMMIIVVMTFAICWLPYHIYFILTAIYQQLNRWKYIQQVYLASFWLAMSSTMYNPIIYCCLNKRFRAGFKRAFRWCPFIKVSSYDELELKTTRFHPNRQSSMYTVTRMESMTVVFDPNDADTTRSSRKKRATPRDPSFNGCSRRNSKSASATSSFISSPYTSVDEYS
Briefly: Antagonism of IP1 in HEK293 cells with stable expression of NK3. It counts as cell-based. The following applies: agonist Senktide 3 nM, read-out: NK3R IC50 (nM) IP1. The method, then: Determination of the Effect of the Compounds of the Present Invention on IP1 in HEK293 Cells with Stable Expression of NK3
The objective of this test example was to determine the antagonism effect of the compounds on the activity of HEK293-NK3 cells.
3. Experimental Methods: • 1. […] HEK293-NK3 cell line was cultured in complete medium and seeded in the coated dishes at 37° C., 5% CO2 until 70%˜90% confluence. • 3. […] The cells were digested and resuspended in 1× Stimulation Buffer (IP-ONE Gq Kit), seeded into the 384-well cell culture plate (which contained the compound to be tested) at 5,000 cells/well/5 μL by using Multidrop Combi. The culture plate was centrifuged at 300 rpm at room temperature for 60 seconds, and then incubated at 37° C., 5% CO2 for 15 minutes. • 5. The cell culture plate was taken out from the CO2 incubator. […] The culture plate was centrifuged at 300 rpm at room temperature for 60 seconds, and then incubated at 37° C., 5% CO2 for 2 hours. • 6. The cell culture plate was taken out from the CO2 incubator. 5 μL of IP1 d2 reagent and then 5 μL of IP1 Tb Cryptate Antibody reagent were added by using Multidrop Combi. The culture plate was centrifuged at room temperature at 300 rpm for 60 seconds, and left to stand at room temperature for 1 hour. • 7. The plate was read by using EnVision Multilabel Reader, and data were collected at the same time.
The fluorescence signal ratio (Ratio) was read and collected by EnVision Multilabel Reader. According to the readings of the Low control (DMSO control) and High control (p)ositive compound) experimental groups, the antagonism percentage data were calculated as {% antagonism=(Ratio sample−Ratio low control)/(Ratio high control−Ratio low control)×100}.

Test [2] has as its target T1, NK3 receptors. In words: Calcium ion fluidity (FLIPR) in cells with stable expression of NK3 receptors. The following applies: calcium signal, antagonist mode, read-out: NK3R IC50 (nM) FLIPR. The format is cell-based. The text has this: Determination of the Effect of the Compounds of the Present Invention on Calcium Ion Fluidity in Cells with Stable Expression of NK3 Receptors
Experimental objective: The objective of this test example was to determine the inhibitory effect of the compounds on NK3 receptors.
Experimental Methods: • 1. […] Probenecid and BSA were freshly added on the day of the experiment. The buffers for the experiments included dye buffer, compound dilution buffer and the like. • 2. […] The culture medium was discarded, and 20 μL of dye was added. The cells were incubated at 37° C. in the dark for 60 min, and then the calcium signal was read. • 4. The antagonist was prepared before the experiments. […] The plate was transferred to FLIPR, and 6× concentration of the agonist compound was added at 5 μL/well. The values were read and the data were saved by using FLIPR. The total assay volume was 30 μL, comprising 20 μL/well of dye buffer, 5 μL/well of 5× concentration of the experimental compound, and 5 μL/well of 6× concentration of the agonist compound.
The calcium signal value was read by FLIPR. The output of each sampling time point in the experiment was calculated as the ratio of the signals at wavelengths of 340/510 nm to 380/510 nm. The maximum minus minimum value was calculated from the ratio signal curve. The IC50 value of the compound was calculated by fitting the data of inhibition rate percentage and ten concentrations to the parametric nonlinear logistic equation by using GraphPad prism.

The structures appear in SMILES notation.

For the compound `Cc1ccc2nc(-c3nnc4n3CCN(C(=O)c3ccc(Cl)c(Cl)c3)[C@@H]4C)sc2c1` [Example 26, (R)-(3,4-Dichlorophenyl)(8-methyl-3-(6-methylbenzo[d]thiazol-2-yl)-5,6-dihydro-[1,2,4]triazolo[4,3-a]pyrazin-7(8H)-yl)methanone], the half-maximal inhibitory concentration (IC50) on NK3 receptors [1] turned out to be 36.1 nM; on NK3 receptors [2], 96.7 nM.

On to `C[C@@H]1c2nnc(-c3nc(Cl)ns3)n2CCN1C(=O)c1cc(F)c(F)c(F)c1` [Example 58, (R)-(3-(3-Chloro-1,2,4-thiadiazol-5-yl)-8-methyl-5,6-dihydro-[1,2,4]triazolo[4,3-a]pyrazin-7(8H)-yl)(3,4,5-trifluorophenyl)methanone], for which the IC50 at NK3 receptors [1] is 84.1 nM; at NK3 receptors [2], 183 nM.

As to `C[C@@H]1c2nnc(-c3nc4cc(F)ccc4s3)n2CCN1C(=O)c1ccc(Cl)cc1` [Example 10, (R)-(4-Chlorophenyl)(3-(5-fluorobenzo[d]thiazol-2-yl)-8-methyl-5,6-dihydro-[1,2,4]triazolo[4,3-a]pyrazin-7(8H)-yl)methanone], the half-inhibitory concentration (IC50) is 172 nM on NK3 receptors [1] and 51.4 nM on NK3 receptors [2].

Take `C[C@@H]1c2nnc(-c3nc4ccccc4s3)n2CCN1C(=O)c1ccc(-c2cccs2)cc1` [Example 5, (R)-(3-(Benzo[d]thiazol-2-yl)-8-methyl-5,6-dihydro-[1,2,4]triazolo[4,3-a]pyrazin-7 (8H)-yl)(4-(thien-2-yl)phenyl)methanone]: on NK3 receptors [2], the concentration for half-maximal inhibition (IC50) turned out to be 159 nM.

`[2H]c1c([2H])c(C(=O)N2CCn3c(-c4nc(Cl)ns4)nnc3[C@H]2C)c([2H])c([2H])c1F` [Example 55, (R)-(3-(3-Chloro-1,2,4-thiadiazol-5-yl)-8-methyl-5,6-dihydro-[1,2,4]triazolo[4,3-a]pyrazin-7(8H)-yl)(4-fluorophenyl-2,3,5,6-d4)methanone]: the IC50 was found to be 88.3 nM at NK3 receptors [1] and 219 nM at NK3 receptors [2].

In the case of `[2H]c1cc(C(=O)N2CCn3c(-c4nc(N5CC(F)C5)cs4)nnc3[C@H]2C)ccc1F` [Example 117, (R)-(3-(4-(3-Fluoroazetidin-1-yl)thiazol-2-yl)-8-methyl-5,6-dihydro-[1,2,4]triazolo[4,3-a]pyrazin-7(8H)-yl)(4-fluorophenyl-3-d)methanone], on NK3 receptors [1], the IC50 was 116 nM.

`[2H]C([2H])([2H])N(c1nsc(-c2nnc3n2CCN(C(=O)c2ccc(Cl)cc2)[C@@H]3C)n1)C([2H])([2H])[2H]` [Example 107, (R)-(3-(3-(Bis(methyl-d3)amino)-1,2,4-thiadiazol-5-yl)-8-methyl-5,6-dihydro-[1,2,4]triazolo[4,3-a]pyrazin-7(8H)-yl)(4-chlorophenyl)methanone]: the half-maximal inhibitory concentration (IC50) on NK3 receptors [1] stood at 80.5 nM; on NK3 receptors [2], 184 nM.

In the case of `C[C@@H]1c2nnc(-c3nc4ccccc4s3)n2CCN1C(=O)c1ccc(F)cc1` [Example 1, (R)-(3-(Benzo[d]thiazol-2-yl)-8-methyl-5,6-dihydro-[1,2,4]triazolo[4,3-a]pyrazin-7 (8H)-yl)(4-fluorophenyl)methanone], the half-maximal inhibitory concentration (IC50) on NK3 receptors [2] was 76.2 nM.

In the case of `Cc1cccc2cc(-c3nnc4n3CCN(C(=O)c3ccc(Cl)c(Cl)c3)[C@@H]4C)nn12` [Example 49, (R)-(3,4-Dichlorophenyl)(8-methyl-3-(7-methylpyrazolo[1,5-a]pyridin-2-yl)-5,6-dihydro-[1,2,4]triazolo[4,3-a]pyrazin-7(8H)-yl)methanone], the values for the IC50 on NK3 receptors [1] and at NK3 receptors [2] were 135 nM and 86.7 nM, respectively.

As to `[2H]c1cc(C(=O)N2CCn3c(-c4nc(Cl)cs4)nnc3[C@H]2C)ccc1F` [Example 121, (R)-(3-(4-Chlorothiazol-2-yl)-8-methyl-5,6-dihydro-[1,2,4]triazolo[4,3-a]pyrazin-7 (8H)-yl)(4-fluorophenyl-3-d)methanone], the IC50 on NK3 receptors [1] worked out at 132 nM.

Regarding `C[C@@H]1c2nnc(-c3nc4cc(F)cc(F)c4s3)n2CCN1C(=O)c1ccc(F)cc1` [Example 18, (R)-(3-(5,7-Difluorobenzo[d]thiazol-2-yl)-8-methyl-5,6-dihydro-[1,2,4]triazolo[4,3-a]pyrazin-7(8H)-yl)(4-fluorophenyl)methanone], the concentration for half-maximal inhibition (IC50) at NK3 receptors [2] is 130 nM.

`C[C@@H]1c2nnc(-c3nc4sccc4s3)n2CCN1C(=O)c1ccc(F)cc1` [Example 40, (R)-(4-Fluorophenyl)(8-methyl-3-(thieno[2,3-d]thiazol-2-yl)-5,6-dihydro-[1,2,4]triazolo[4,3-a]pyrazin-7(8H)-yl)methanone]: the IC50 on NK3 receptors [2] was 298 nM.

Regarding `C[C@@H]1c2nnc(-c3nc4sccc4s3)n2CCN1C(=O)c1ccc(Cl)cc1` [Example 41, (R)-(4-Chlorophenyl)(8-methyl-3-(thieno[2,3-d]thiazol-2-yl)-5,6-dihydro-[1,2,4]triazolo[4,3-a]pyrazin-7(8H)-yl)methanone], the IC50 at NK3 receptors [2] was 224 nM.

Consider `C[C@@H]1c2nnc(-c3cc4ccccn4n3)n2CCN1C(=O)c1ccc(Cl)c(Cl)c1` [Example 46, (R)-(3,4-Dichlorophenyl)(8-methyl-3-(pyrazolo[1,5-a]pyridin-2-yl)-5,6-dihydro-[1,2,4]triazolo[4,3-a]pyrazin-7(8H)-yl)methanone], for which the IC50 at NK3 receptors [2] amounted to 107 nM.

For the compound `[2H]c1c([2H])c(C(=O)N2CCn3c(-c4nc(C([2H])([2H])[2H])ns4)nnc3[C@H]2C)c([2H])c([2H])c1F` [Example 50, (R)-(4-Fluorophenyl-2,3,5,6-d4)(8-methyl-3-(3-(methyl-d3)-1,2,4-thiadiazol-5-yl)-5,6-dihydro-[1,2,4]triazolo[4,3-a]pyrazin-7(8H)-yl)methanone], on NK3 receptors [2], the IC50 turned out to be 147 nM.

Take `C[C@@H]1c2nnc(-c3nc4ccsc4s3)n2CCN1C(=O)c1ccc(Cl)c(Cl)c1` [Example 44, (R)-(3,4-Dichlorophenyl)(8-methyl-3-(thieno[3,2-d]thiazol-2-yl)-5,6-dihydro-[1,2,4]triazolo[4,3-a]pyrazin-7(8H)-yl)methanone]: the IC50 at NK3 receptors [2] is 255 nM.

For the compound `C[C@@H]1c2nnc(-c3nc4ccc(Cl)nc4s3)n2CCN1C(=O)c1ccc(F)cc1` [Example 38], the IC50 at NK3 receptors [2] is 247 nM.

Consider `C[C@@H]1c2nnc(-c3nc4c(F)cc(F)cc4s3)n2CCN1C(=O)c1ccc(Cl)cc1` [Example 16, (R)-(4-Chlorophenyl)(3-(4,6-difluorobenzo[d]thiazol-2-yl)-8-methyl-5,6-dihydro-[1,2,4]triazolo[4,3-a]pyrazin-7(8H)-yl)methanone], for which the IC50 at NK3 receptors [1] is 146 nM.

As for `[2H]C([2H])([2H])N(c1nsc(-c2nnc3n2CCN(C(=O)c2ccc(F)cc2)[C@@H]3C)n1)C([2H])([2H])[2H]` [Example 106, (R)-(3-(3-(Bis(methyl-d3)amino)-1,2,4-thiadiazol-5-yl)-8-methyl-5,6-dihydro-[1,2,4]triazolo[4,3-a]pyrazin-7(8H)-yl)(4-fluorophenyl)methanone], the IC50 on NK3 receptors [1] is 129 nM.

Turning to `C[C@@H]1c2nnc(-c3nc(N(C)C4CC4)ns3)n2CCN1C(=O)c1ccc(F)cc1` [Example 115, (R)-(3-(3-(Cyclopropyl(methyl)amino)-1,2,4-thiadiazol-5-yl)-8-methyl-5,6-dihydro-[1,2,4]triazolo[4,3-a]pyrazin-7(8H)-yl)(4-fluorophenyl)methanone], the IC50 on NK3 receptors [1] came out at 76.6 nM.
